Patent US4499084A, “Ara-A Antiviral composition and method of administering the same” (priority 1983, dated 1985)
≈ marks a conversion by molar mass, not a printed value. Where two headings read alike, the source gives them in different places.

Columns and labels:
[1] = tested on: DNA viruses, including herpes simplex; conditions: combined with dimethyl sulfoxide (DMSO); cited from earlier work
[2] = tested on: oral or genital herpes simplex virus disease; conditions: cited from earlier work
[3] = tested on: herpes simplex virus; conditions: cited from earlier work
[4] = tested on: mice; conditions: cited from earlier work
[5] = tested on: DNA polymerase; conditions: cited from earlier work
[6] = tested on: DNA viruses; conditions: in vitro and in vivo (animal models or man); cited from earlier work
[7] = solubility; format: physicochemical; conditions: organic solvent or mixture; DMSO solvent system; read-out: concentration achieved using DMSO as the solvent system
Method: By using DMSO as the solvent system, it is possible to achieve a concentration of 10 mg/ml or greater. DMSO transports the ara-A directly into the virus infected cell where active viral replication is occurring. The drug interfers with viral DNA synthesis causing inhibition of viral maturation.
DMSO serves two purposes in enhancing the therapeutic action of ara-A. First, DMSO allows a concentration of ara-A that is more than 20 times greater than can be achieved with water alone. […] It is this percutaneous property of DMSO that is apparently responsible for the extraordinary effectiveness of this medication.

[8] = format: physicochemical
Description: There are no special procedures involved in the preparation of the antiviral composition of the present invention. The demineralized water and DMSO can be mixed and the ara-A (and benzocaine if used) dissolved in the DMSO and water solution. The ara-A can be added to the pure DMSO, and water added last. When water and DMSO are mixed, the solution becomes warm because there is a positive heat of solution. […] Ara-A can be recovered from the DMSO and water solution virtually 100 percent as unchanged ara-A.

[9] = tested on: varicella-zoster virus; conditions: in vitro and in vivo (animal models or man); cited from earlier work
[10] = tested on: Epstein-Barr (E-B) virus; conditions: in vitro and in vivo (animal models or man); cited from earlier work
[11] = tested on: man; test: toxicity and side effects in man; format: in vivo; conditions: average 150 pound man; converted from oral LD50 in rats and mice
Method: Regarding toxicity or other side effects on the patient, extensive pharmacology and toxicity studies ara-A have been carried out in animals and in man. […] This dose level indicates a low order of toxicity to a single parenteral dose. The acute oral LD50 in both rats and mice is greater than 5000 mg/kg. This amount would be equivalent to more than […] in an average 150 pound person. […] In the form used in the present invention and with treatment by topical application, it is highly unlikely that any toxic side effects of ara-A would be observed.

[12] = tested on: rats; conditions: cited from earlier work
[13] = cited from earlier work
[14] = tested on: vaccinia virus; conditions: in vitro and in vivo (animal models or man); cited from earlier work
[15] = tested on: cytomegalovirus; conditions: in vitro and in vivo (animal models or man); cited from earlier work
[16] = tested on: man; conditions: cited from earlier work
[17] = tested on: patient; test: effect of benzocaine in DMSO on the patient; format: in vivo; conditions: administered in DMSO
[18] = tested on: antiviral activity of ara-A; test: effect of benzocaine added to the medication on antiviral activity of ara-A; conditions: benzocaine in the medication
Description: The medication of the present invention has been prepared and used both ways.

[19] = tested on: animals and humans; conditions: cited from earlier work
[20] = tested on: skin; conditions: applied to the skin; cited from earlier work
[21] = tested on: interstitial spaces and cell walls; conditions: not told; cited from earlier work
[22] = tested on: skin; conditions: in vivo
Method: This rash, however, usually disappears shortly thereafter with no ill effects. Annals of the New York Academy of Sciences, […]. S. W. Jacob, E. E. Rosenhaum and D. C. Wood, Eds., Vol. 1 Dimethyl Sulfoxide 99, (marcel Depper, Inc., New York, N.Y. 1971); and Annals of the New York Academy of Sciences, Vol. 243 (1975). In the present invention DMSO is diluted to 70% with demineralized water before ara-A is added.

O=c1[nH]c(=O)n([C@H]2C[C@H](O)[C@@H](CO)O2)cc1I [IdU, 5-iododexyuridine]
clearing of skin lesions [1]: purportedly cleared up skin lesions
prevention of recurrence [1]: prevent recurrence

Nc1nc2c(ncn2COCCO)c(=O)[nH]1 [acyclovir]
success in combating oral or genital herpes simplex virus disease in a clinical setting [2]: none of these antiviral agents have been successful
destruction of herpes simplex virus in a laboratory setting [3]: will destroy the herpes simplex virus

NC(=O)c1ncn([C@@H]2O[C@H](CO)[C@@H](O)[C@H]2O)n1 [ribavirin]
success in combating oral or genital herpes simplex virus disease in a clinical setting [2]: none of these antiviral agents have been successful
destruction of herpes simplex virus in a laboratory setting [3]: will destroy the herpes simplex virus

O=C(O)CP(=O)(O)O [phosphonacetic acid]
success in combating oral or genital herpes simplex virus disease in a clinical setting [2]: none of these antiviral agents have been successful
destruction of herpes simplex virus in a laboratory setting [3]: will destroy the herpes simplex virus

Nc1ncnc2c1ncn2[C@@H]1O[C@H](CO)[C@@H](O)[C@@H]1O [ara-A, adenine-9-beta-D-arabinofuranoside]
acute oral LD50 [4]: greater than 5000 mg/kg
success in combating oral or genital herpes simplex virus disease in a clinical setting [2]: none of these antiviral agents have been successful
effectiveness against oral or genital herpes ([2]; ointment form (ocular herpes) or infusion for 12 to 24 hours (herpes encephalitis)): Neither of these treatments are effective against oral or genital herpes
antiviral activity against the herpes simplex virus [3]: effective antiviral agent against the herpes simplex virus
destruction of herpes simplex virus in a laboratory setting [3]: will destroy the herpes simplex virus
inhibition of DNA polymerase [5]: inhibits the enzyme DNA polymerase
activity against a broad spectrum of DNA viruses [6]: active
solubility [7]: ≥ 10000 µg/mL
recovery of unchanged ara-A ([8]; from the DMSO and water solution): ~100%
chemical reaction between ara-A and DMSO ([8]; under the conditions of preparation): no chemical reaction between ara-A and DMSO
activity against varicella-zoster virus [9]: active
activity against Epstein-Barr virus [10]: active
amount equivalent to the acute oral LD50 in an average 150 pound person [11]: more than 750 grams
acute oral LD50 [12]: greater than 5000 mg/kg
solubility in water ([13]; 25C): 450 µg/mL (≈ 1.68 mM)
solubility in water [13]: highly insoluble in water
activity against vaccinia virus [14]: active
activity against cytomegalovirus [15]: active
side effects of massive acute overdosage ([16]; intravenous form, massive acute overdosage): without any serious side effect
redness and irritation after topical application ([16]; topical application, some cases): redness and slight irritation
toxicity through topical application ([16]; topical application): not possible to demonstrate toxicity through topical application

CCOC(=O)c1ccc(N)cc1 [benzocaine]
deleterious effect of benzocaine on the patient [17]: Nor does the benzocaine appear to have any deleterious affect on the patient
effect of benzocaine on antiviral activity of ara-A [18]: does not impair the antiviral activity of ara-A

O=CC[C@@H](O)[C@H](O)[C@H](O)CO [2-deoxy-d-glucose]
success in combating oral or genital herpes simplex virus disease in a clinical setting [2]: none of these antiviral agents have been successful
destruction of herpes simplex virus in a laboratory setting [3]: will destroy the herpes simplex virus

C[S+](C)[O-] [DMSO, dimethyl sulfoxide]
toxicity of DMSO [19]: essentially nontoxic
skin reaction to undiluted DMSO [20]: sometimes may cause an itching or burning sensation with redness or a rash
permeation of interstitial spaces and cell walls [21]: unique ability of permeating the interstitial spaces and cell walls
skin irritation at 70% DMSO [22]: usually nonirritating to normal skin
